Laboratory results reported in PubChem BioAssay AID1963832 (Molecular Pharmacology Branch, DTP, NCI, 2024).
pIC50: −log10 of the molar value.

Tested on: 885724-159-R-J1-PDC complex spheroid viability
Assay: Anticancer human tumor 885724-159-R-J1-PDC patient-derived pancreatic adenocarcinoma cell line growth inhibition [POLQ]
Details: for pIC50: curve of first compound; for viability, T/C: stronger effect = lower value
Description: Multicellular complex tumor spheroid response to Polymerase (POL) inhibitors (novobiocin, ART-558, RP6685) in combination with a variety of drugs and investigational agents in selected tumor cell lines
The POL inhibitors (novobiocin, ART-558, and RP6685) were evaluated both individually and in combination with standard of care and investigational anticancer small molecules within a complex spheroid model of solid tumors. . Complex spheroids include a stromal component modeled by human endothelial cells (HUVEC) and fibroblasts modeled by human mesenchymal stem cells (MSCs). The concentration ranges selected for each drug and investigational agent were based upon clinically achievable concentrations if the clinical Cmax of the agent was known.
Compounds. The drugs and investigational agents: novobiocin (NSC847541), ART-558 (NSC835418), RP-6685 (NSC848927), peposertib (NSC802822), ceralasertib (NSC780249), elimusertib (NSC800525), camonsertib (NSC841442), AZD-1390 (NSC803789), olaparib (NSC753686), talazoparib (NSC767125), rucaparib (NSC756644), sotorasib (NSC818433), MRTX-1133 (NSC836407), SN-38 (NSC673596), topotecan (NSC609699), epotoside (NSC141540), doxorubicin (NSC123127), gemcitabine (NSC613327), 5-fluorouracil (NSC19893), paclitaxel (NSC125973), vemurafenib (NSC761431), MSA-2 (NSC828583), SN-011 (NSC837082), adavosertib (NSC754352), prexasertib (NSC758257), carboplatin (NSC241240) and oxaliplatin (NSC266046), were obtained from the National Cancer Institute (NCI) Developmental Therapeutics Program Chemical Repository (21). The FDA-approved anticancer drug set is available from the Developmental Therapeutics Program at https://dtp.cancer.gov/organization/dscb/obtaining/. […] The stock solutions were prepared in dimethyl sulfoxide (DMSO, Sigma-Aldrich, St. Louis, MO, cat. D2650), except for the platinum compounds which were prepared in saline (Quality Biological, Gaithersburg, MD, cat. 114-055-101), at 800-fold the tested concentration and stored at -70 degrees C prior to their use. All drugs and investigational agents were tested over a range starting from a high concentration at or near the clinical Cmax and decreasing in half-log increments. If the clinical Cmax for an agent had not been determined, the highest concentration tested was 10 microM, except for SN-38, which was tested at a high concentration of 1 microM.
Cell Culture. All cells were maintained in an incubator at 37 degrees C and 5% CO2 with 95% humidity. The PDC lines were cultured according to standard operating procedures established by the NCI PDMR (https://pdmr.cancer.gov). Table 3 of the manuscript, lists the cell lines along with the number of the three cell types plated to form the mct-spheroids and media for tumor cell growth. After thawing, all PDC lines, except 997537-175-T-J1-PDC and 415267-285-R-J2-PDC, were cultured in Matrigel-coated flasks prepared with a working solution of 1X Ham's F-12 nutrient mix, without supplementation (Thermo Fisher Scientific, cat. 11765054), 100 U/mL penicillin-streptomycin (Thermo Fisher Scientific, cat. 15140122), and 2.5% Matrigel (Corning Inc., Corning, NY, cat. 354248) for the first three passages. The two PDC lines 997537-175-T-J1-PDC and 415267-285-R-J2-PDC were cultured on uncoated flasks. The 857933-349-R-J2-PDC line was cultured in 6C/Colon 1B media containing advanced DMEM/F-12 (Thermo Fisher Scientific, cat. 12634028), 10 mM HEPES (Thermo Fisher Scientific, cat. 15630080), 1X GlutaMAX supplement (Thermo Fisher Scientific, cat. 35050061), 0.1 mg/mL primocin (InvivoGen, San Diego, CA, cat. ant-pm-2), 10% defined fetal bovine serum, heat inactivated (HyClone Laboratories Inc., Logan, UT, cat. SH30070.03HI), 50% L-WRN conditioned media (ATCC, cat. CRL-3276), 1.25 mM N-Acetyl-L-cysteine (Sigma-Aldrich, cat. A9165), 10 mM nicotinamide (Sigma-Aldrich, cat. N0636), 1X B-27 supplement (Thermo Fisher Scientific, cat. 17504044), 1X N-2 supplement (Thermo Fisher Scientific, cat. […]

[1] = second compound 0.0316 µM, first compound 0.0316 µM
[2] = second compound 0.0316 µM, first compound 0.1 µM
[3] = second compound 0.0316 µM, first compound 0.316 µM
[4] = second compound 0.0316 µM, first compound 1 µM
[5] = second compound 0.0316 µM, first compound 3.16 µM
[6] = second compound 0.0316 µM, first compound 10 µM
[7] = second compound 0.1 µM, first compound 0.0316 µM
[8] = second compound 0.1 µM, first compound 0.1 µM
[9] = second compound 0.1 µM, first compound 0.316 µM
[10] = second compound 0.1 µM, first compound 1 µM
[11] = second compound 0.1 µM, first compound 3.16 µM
[12] = second compound 0.1 µM, first compound 10 µM
[13] = second compound 0.316 µM, first compound 0.0316 µM
[14] = second compound 0.316 µM, first compound 0.1 µM
[15] = second compound 0.316 µM, first compound 0.316 µM
[16] = second compound 0.316 µM, first compound 1 µM
[17] = second compound 0.316 µM, first compound 3.16 µM
[18] = second compound 0.316 µM, first compound 10 µM
[19] = second compound 1 µM, first compound 0.0316 µM
[20] = second compound 1 µM, first compound 0.1 µM
[21] = second compound 1 µM, first compound 0.316 µM
[22] = second compound 1 µM, first compound 1 µM
[23] = second compound 1 µM, first compound 3.16 µM
[24] = second compound 1 µM, first compound 10 µM
[25] = second compound 3.16 µM, first compound 0.0316 µM
[26] = second compound 3.16 µM, first compound 0.1 µM
[27] = second compound 3.16 µM, first compound 0.316 µM
[28] = second compound 3.16 µM, first compound 1 µM
[29] = second compound 3.16 µM, first compound 3.16 µM
[30] = second compound 3.16 µM, first compound 10 µM
[31] = second compound 10 µM, first compound 0.0316 µM
[32] = second compound 10 µM, first compound 0.1 µM
[33] = second compound 10 µM, first compound 0.316 µM
[34] = second compound 10 µM, first compound 1 µM
[35] = second compound 10 µM, first compound 3.16 µM
[36] = second compound 10 µM, first compound 10 µM
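Further: spheroids exposed to compounds for 7 days.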

## CC(C)n1c(=O)n(C)c2cnc3cc(F)c(-c4ccc(OCCCN5CCCCC5)nc4)cc3c21 + COC1C(OC(N)=O)C(O)C(Oc2ccc3c(O)c(NC(=O)c4ccc(O)c(CC=C(C)C)c4)c(=O)oc3c2C)OC1(C)C
Second compound 0.0316 µM
  pIC50: < 5.00
Second compound 0.1 µM
  pIC50: < 5.00
Second compound 0.316 µM
  pIC50: < 5.00
Second compound 1 µM
  pIC50: < 5.00
Second compound 3.16 µM
  pIC50: < 5.00
Second compound 10 µM
  pIC50: < 5.00
[1]
  viability, T/C: 89.6%
[2]
  viability, T/C: 89.6%
[3]
  viability, T/C: 97.5%
[4]
  viability, T/C: 88.9%
[5]
  viability, T/C: 88.3%
[6]
  viability, T/C: 84.4%
[7]
  viability, T/C: 96.5%
[8]
  viability, T/C: 99.4%
[9]
  viability, T/C: 100%
[10]
  viability, T/C: 100%
[11]
  viability, T/C: 91.1%
[12]
  viability, T/C: 105%
[13]
  viability, T/C: 99.4%
[14]
  viability, T/C: 86.6%
[15]
  viability, T/C: 93.5%
[16]
  viability, T/C: 93.7%
[17]
  viability, T/C: 91.8%
[18]
  viability, T/C: 86.1%
[19]
  viability, T/C: 104%
[20]
  viability, T/C: 96.5%
[21]
  viability, T/C: 104%
[22]
  viability, T/C: 90%
[23]
  viability, T/C: 97%
[24]
  viability, T/C: 77.8%
[25]
  viability, T/C: 99.5%
[26]
  viability, T/C: 92.5%
[27]
  viability, T/C: 94.3%
[28]
  viability, T/C: 98%
[29]
  viability, T/C: 98.7%
[30]
  viability, T/C: 93.2%
[31]
  viability, T/C: 100%
[32]
  viability, T/C: 94.9%
[33]
  viability, T/C: 114%
[34]
  viability, T/C: 91.9%
[35]
  viability, T/C: 88.8%
[36]
  viability, T/C: 93.2%

## CC1COCCN1c1cc(C2(O)CC3CCC(C2)O3)c2cnn(-c3ccn[nH]3)c2n1 (stereo unspecified) + COC1C(OC(N)=O)C(O)C(Oc2ccc3c(O)c(NC(=O)c4ccc(O)c(CC=C(C)C)c4)c(=O)oc3c2C)OC1(C)C
Second compound 0.0316 µM
  pIC50: 6.86
Second compound 0.1 µM
  pIC50: 6.82
Second compound 0.316 µM
  pIC50: 7.01
Second compound 1 µM
  pIC50: 6.86
Second compound 3.16 µM
  pIC50: 7.02
Second compound 10 µM
  pIC50: 6.99
[1]
  viability, T/C: 74.7%
[2]
  viability, T/C: 49.8%
[3]
  viability, T/C: 38.8%
[4]
  viability, T/C: 41.8%
[5]
  viability, T/C: 31.5%
[6]
  viability, T/C: 23.2%
[7]
  viability, T/C: 73.3%
[8]
  viability, T/C: 51.4%
[9]
  viability, T/C: 40%
[10]
  viability, T/C: 41.4%
[11]
  viability, T/C: 31.9%
[12]
  viability, T/C: 24.7%
[13]
  viability, T/C: 63.1%
[14]
  viability, T/C: 50.4%
[15]
  viability, T/C: 39%
[16]
  viability, T/C: 34.8%
[17]
  viability, T/C: 32.5%
[18]
  viability, T/C: 28.6%
[19]
  viability, T/C: 75.1%
[20]
  viability, T/C: 52%
[21]
  viability, T/C: 39.7%
[22]
  viability, T/C: 38.1%
[23]
  viability, T/C: 31.2%
[24]
  viability, T/C: 25.4%
[25]
  viability, T/C: 68.1%
[26]
  viability, T/C: 44.8%
[27]
  viability, T/C: 42.5%
[28]
  viability, T/C: 35.8%
[29]
  viability, T/C: 31.8%
[30]
  viability, T/C: 26.4%
[31]
  viability, T/C: 61.1%
[32]
  viability, T/C: 50.5%
[33]
  viability, T/C: 40.8%
[34]
  viability, T/C: 34.5%
[35]
  viability, T/C: 34.9%
[36]
  viability, T/C: 26.3%

## CCc1cc2c(N3CCc4c(cc(Cn5ccnc5)cc4-c4cn(C)nc4C(F)(F)F)C3=O)cc(C)nc2c(OC)n1 + COC1C(OC(N)=O)C(O)C(Oc2ccc3c(O)c(NC(=O)c4ccc(O)c(CC=C(C)C)c4)c(=O)oc3c2C)OC1(C)C
Second compound 0.0316 µM
  pIC50: < 5.00
Second compound 0.1 µM
  pIC50: < 5.00
Second compound 0.316 µM
  pIC50: < 5.00
Second compound 1 µM
  pIC50: < 5.00
Second compound 3.16 µM
  pIC50: < 5.00
Second compound 10 µM
  pIC50: < 5.00
[1]
  viability, T/C: 87.4%
[2]
  viability, T/C: 79.7%
[3]
  viability, T/C: 75.3%
[4]
  viability, T/C: 68.9%
[5]
  viability, T/C: 84.7%
[6]
  viability, T/C: 66.2%
[7]
  viability, T/C: 89%
[8]
  viability, T/C: 78.6%
[9]
  viability, T/C: 77%
[10]
  viability, T/C: 77.1%
[11]
  viability, T/C: 69.7%
[12]
  viability, T/C: 70.4%
[13]
  viability, T/C: 88.7%
[14]
  viability, T/C: 71.8%
[15]
  viability, T/C: 90.4%
[16]
  viability, T/C: 75.4%
[17]
  viability, T/C: 79.2%
[18]
  viability, T/C: 67.6%
[19]
  viability, T/C: 80%
[20]
  viability, T/C: 73.5%
[21]
  viability, T/C: 79.9%
[22]
  viability, T/C: 82.5%
[23]
  viability, T/C: 74.5%
[24]
  viability, T/C: 71.9%
[25]
  viability, T/C: 80.3%
[26]
  viability, T/C: 72.9%
[27]
  viability, T/C: 82.6%
[28]
  viability, T/C: 76.7%
[29]
  viability, T/C: 80.1%
[30]
  viability, T/C: 75.2%
[31]
  viability, T/C: 78.4%
[32]
  viability, T/C: 80.9%
[33]
  viability, T/C: 77.2%
[34]
  viability, T/C: 75.1%
[35]
  viability, T/C: 75.9%
[36]
  viability, T/C: 72%
